Results: ChEMBL document CHEMBL1148242, “New benzo[5,6]pyrrolizino[1,2-b]quinolines as cytotoxic agents” (Bioorg Med Chem Lett, 2004)
pIC50: −log10 of the molar value.

Legend:
Assay type in all cases: functional, cell-based
[1] = tested on: L1210; experiment: In vitro cytotoxic activity of compound against mouse leukemia L1210 cell line
[2] = tested on: MCF7; experiment: In vitro cytotoxic activity of compound against human MCF-7 cell line
[3] = tested on: PC-3; experiment: In vitro cytotoxic activity of compound against human PC3 cell line

| Compound | pIC50 [1] | pIC50 [2] | pIC50 [3] |
| --- | --- | --- | --- |
| CCc1c2c(nc3ccc(OCCN4CCCCC4)cc13)-c1cc3cc(O)ccc3n1C2 | 6.26 | 5.20 | 5.32 |
| Cc1c2c(nc3ccc(OCCN4CCCCC4)cc13)-c1cc3cc(O)ccc3n1C2 | 6.26 | 6.26 | 5.31 |
| Cc1c2c(nc3ccc(O)cc13)-c1cc3cc(O)ccc3n1C2 | 5.47 | < 4.30 | < 5.00 |
| Cc1c2c(nc3ccc(OCCN4CCCCC4)cc13)-c1cc3cc(OCCN4CCCCC4)ccc3n1C2 | 6.26 | 5.34 | 5.28 |
| COc1ccc2c(c1)cc1n2Cc2c-1nc1ccc(O)cc1c2C | 6.22 | 4.92 | < 4.30 |
| CC[C@@]1(O)C(=O)OCc2c1cc1n(c2=O)Cc2cc3ccccc3nc2-1 [CAMPTOTHECIN] | 7.22 | 6.49 | 6.51 |
| COc1ccc2c(c1)cc1n2Cc2c-1nc1ccc(OCCN3CCCCC3)cc1c2C | 5.41 | 5.28 | 5.26 |
